Test results taken from ChEMBL document CHEMBL1201862, “PubChem BioAssay data set” (2004).
Where a name gives a salt, the structure may show the parent alone.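 96-well plates; 48 h exposure; 5 concentrations. Endpoints by linear interpolation between flanking doses. Not reached: highest tested concentration assigned. Abbreviation: GI50, concentration required for 50% inhibition of growth.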 Activity calls are given as the source filed them. Cut-off read from the data, not from the text of the source: active = GI50 up to about 1.1 µM and inactive = higher.

Columns and labels:
Assay in all cases: NCI tumour cell line growth inhibition, 48 h
NCI-H460 = tested on: NCI-H460
M14 = tested on: M14
SK-MEL-2 = tested on: SK-MEL-2
KM12 = tested on: KM12
MDA-MB-435 = tested on: MDA-MB-435
SK-MEL-28 = tested on: SK-MEL-28
SNB-19 = tested on: SNB-19
TK-10 = tested on: TK-10
SF-268 = tested on: SF-268
PC-3 = tested on: PC-3
DU-145 = tested on: DU-145
MCF7 = tested on: MCF7
MDA-N = tested on: MDA-N
CAKI-1 = tested on: CAKI-1
HOP-18 = tested on: HOP-18
SNB-78 = tested on: SNB-78
DMS-114 = tested on: DMS-114
DMS-273 = tested on: DMS-273
DLD-1 = tested on: DLD-1
XF498 = tested on: XF498

SMILES | GI50 (NCI-H460) | GI50 (M14) | GI50 (SK-MEL-2) | GI50 (KM12) | GI50 (MDA-MB-435) | GI50 (SK-MEL-28) | GI50 (SNB-19) | GI50 (TK-10) | GI50 (SF-268) | GI50 (PC-3) | GI50 (DU-145) | GI50 (MCF7) | GI50 (MDA-N) | GI50 (CAKI-1) | GI50 (HOP-18) | GI50 (SNB-78) | GI50 (DMS-114) | GI50 (DMS-273) | GI50 (DLD-1) | GI50 (XF498)
O=S1(=O)C[C@H](NCc2ccccc2)[C@H](NCc2ccccc2)C1 | > 100 µM (inactive) | > 100 µM (inactive) | > 100 µM (inactive) | > 100 µM (inactive) | > 100 µM (inactive) | > 100 µM (inactive) | > 100 µM (inactive) | > 100 µM (inactive) | > 100 µM (inactive) | 56.5 µM (inactive) | > 100 µM (inactive) | 83.8 µM (inactive) | > 100 µM (inactive) | > 100 µM (inactive) | – | – | – | – | – | –
COC(=O)NN1C(=O)C(=P(c2ccccc2)(c2ccccc2)c2ccccc2)C(C(=O)OC)=C1C | > 100 µM (inactive) | > 100 µM (inactive) | > 100 µM (inactive) | – | – | > 100 µM (inactive) | > 100 µM (inactive) | > 100 µM (inactive) | > 100 µM (inactive) | – | – | – | – | > 100 µM (inactive) | > 100 µM (inactive) | > 100 µM (inactive) | > 100 µM (inactive) | > 100 µM (inactive) | – | –
O=C(/C=C1\Nc2ncccc2N=C1CC(=O)c1ccccc1)c1ccccc1 | 1.59 µM (inactive) | 7.35 µM (inactive) | 12.6 µM (inactive) | 6.43 µM (inactive) | 5.93 µM (inactive) | 32.3 µM (inactive) | 7.69 µM (inactive) | 35.6 µM (inactive) | 2.53 µM (inactive) | 10.1 µM (inactive) | 12.9 µM (inactive) | 3.61 µM (inactive) | 7.52 µM (inactive) | 2.06 µM (inactive) | – | – | – | – | – | –
Nc1nnc(O)c2c1c(I)cn2C1OC(CO)C(O)C1O (stereo not given) | 0.0728 µM (active) | 0.64 µM (active) | 0.0226 µM (active) | 0.393 µM (active) | – | 1.18 µM (inactive) | 7.93 µM (inactive) | 3.01 µM (inactive) | 2.21 µM (inactive) | – | – | – | – | – | 3.05 µM (inactive) | 1.17 µM (inactive) | 1.43 µM (inactive) | 0.125 µM (active) | 0.082 µM (active) | 2.96 µM (inactive)
O=C1CC2CC3OC3[C@H]3c4cc5c(cc4C(=O)N1C23)OCO5 (stereo not given in full) | > 100 µM (inactive) | > 100 µM (inactive) | > 100 µM (inactive) | > 100 µM (inactive) | – | > 100 µM (inactive) | > 100 µM (inactive) | > 100 µM (inactive) | > 100 µM (inactive) | – | – | – | – | > 100 µM (inactive) | – | – | > 100 µM (inactive) | > 100 µM (inactive) | – | > 100 µM (inactive)
CCCCc1oc2ccccc2c1C(=O)c1cc(I)c(OCCN(CC)CC)c(I)c1 [AMIODARONE HYDROCHLORIDE] | 4.09 µM (inactive) | – | 4.63 µM (inactive) | 5.51 µM (inactive) | – | 4.8 µM (inactive) | 6.21 µM (inactive) | – | 11 µM (inactive) | – | – | 5.19 µM (inactive) | – | 6.14 µM (inactive) | 0.791 µM (active) | 7.6 µM (inactive) | – | 4.16 µM (inactive) | 6.73 µM (inactive) | 4.69 µM (inactive)
NCCCCNOCCCN | > 100 µM (inactive) | > 100 µM (inactive) | > 100 µM (inactive) | > 100 µM (inactive) | > 100 µM (inactive) | > 100 µM (inactive) | > 100 µM (inactive) | > 100 µM (inactive) | > 100 µM (inactive) | > 100 µM (inactive) | > 100 µM (inactive) | > 100 µM (inactive) | > 100 µM (inactive) | > 100 µM (inactive) | – | – | – | – | – | –
COC(=O)C1=C(O)C(C(=O)OC)[C@@]2(O)[C@@H](C(=O)OC)[C@H](C)C[C@@H]1[C@@H]2C(=O)OC (stereo not given in full) | 20 µM (inactive) | 20.6 µM (inactive) | 21.4 µM (inactive) | 23.5 µM (inactive) | 14.7 µM (inactive) | 46.2 µM (inactive) | 34.2 µM (inactive) | 57.9 µM (inactive) | – | – | 20.2 µM (inactive) | 34.8 µM (inactive) | 15.2 µM (inactive) | – | – | – | – | – | – | –
NCc1ccccc1-c1c2nc(c(-c3ccccc3CN)c3ccc([nH]3)c(-c3ccccc3CN)c3nc(c(-c4ccccc4CN)c4ccc1[nH]4)C=C3)C=C2 | 19.1 µM (inactive) | 21 µM (inactive) | 24.7 µM (inactive) | 20 µM (inactive) | – | 19 µM (inactive) | 18.6 µM (inactive) | 27.5 µM (inactive) | 20.8 µM (inactive) | – | – | – | – | – | 1.18 µM (inactive) | 16.7 µM (inactive) | – | 7.36 µM (inactive) | – | –
CCOC(=O)C(=O)Nc1c(CC)cccc1C(C)CC (stereo not given) | > 100 µM (inactive) | > 100 µM (inactive) | > 100 µM (inactive) | > 100 µM (inactive) | – | > 100 µM (inactive) | > 100 µM (inactive) | > 100 µM (inactive) | > 100 µM (inactive) | – | – | – | – | > 100 µM (inactive) | > 100 µM (inactive) | > 100 µM (inactive) | > 100 µM (inactive) | > 100 µM (inactive) | > 100 µM (inactive) | > 100 µM (inactive)
